Results published in ChEMBL document CHEMBL1201862, “PubChem BioAssay data set” (2004).
Active and inactive are the calls of the source. Cut-off read from the data, not from the text of the source, for most assays here: actives have a measured EC50 and inactives only a lower limit.

Columns and labels:
[1] = luciferase reporter signal suppression in cells – H4 neuroglioma cells, luminescence, dose response (AID 1990); type: functional, cell-based
[2] = Luminescence Cell-Based Dose Response HTS to Identify Inhibitors of 5'UTR Stem-Loop Driven Prion Protein mRNA Translation in H4 Neuroglioblastoma Cells. [Related pubchem assays: 1827 (Project Summary), 1813 (Primary HTS)]; type: functional
[3] = alpha-synuclein stem-loop luciferase translation blockers – H4 neuroglioma cells, luminescence, confirmation (AID 1988); type: functional, cell-based
[4] = molecular target: T1, Heat shock factor protein 1 (Mus musculus, UniProt P38532); assay: decrease of HSF1-responsive luciferase luminescence – cell-based, NIH3T3, dose retest, confirmation (AID 2382); type: functional;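 note: NIH3T3 fibroblasts with HSF1-driven luciferase reporter stressed by proteasome inhibitor MG132; luminescence from HSF1-driven luciferase expression after 8 hours of MG132 stress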
T1 sequence (P38532 whole entry): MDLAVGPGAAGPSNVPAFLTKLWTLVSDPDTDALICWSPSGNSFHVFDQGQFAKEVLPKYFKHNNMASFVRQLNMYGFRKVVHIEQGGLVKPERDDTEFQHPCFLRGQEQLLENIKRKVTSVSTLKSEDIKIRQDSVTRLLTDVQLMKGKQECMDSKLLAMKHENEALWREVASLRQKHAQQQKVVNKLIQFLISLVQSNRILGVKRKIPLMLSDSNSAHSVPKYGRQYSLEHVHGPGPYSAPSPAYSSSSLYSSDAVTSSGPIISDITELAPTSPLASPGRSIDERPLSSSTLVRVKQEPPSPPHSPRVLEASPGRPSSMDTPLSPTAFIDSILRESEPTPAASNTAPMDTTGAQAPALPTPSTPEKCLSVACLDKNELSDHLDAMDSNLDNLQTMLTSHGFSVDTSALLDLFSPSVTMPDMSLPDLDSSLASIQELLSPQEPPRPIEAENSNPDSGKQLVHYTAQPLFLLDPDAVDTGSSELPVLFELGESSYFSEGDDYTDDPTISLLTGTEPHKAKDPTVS

[5] = system: Streptococcus sp. 'group A'; assay: Streptococcus pyogenes SK(-)GAS viability under kanamycin – luminescence, BacTiterGlo, confirmation, counter-screen for streptokinase expression inhibitor project, dose response (AID 1900); type: functional, organism-based
Streptokinase A = molecular target: T2, Streptokinase A (Streptococcus pyogenes serotype M1, UniProt P10520); assay: viability-normalized secreted streptokinase activity reduction – plasminogen activation absorbance, OD405, dose response (AID 1914); type: functional, Streptococcus pyogenes M1 GAS;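 note: secreted streptokinase activity via plasminogen activation per viability signal from cell pellet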
T2 sequence (P10520 whole entry): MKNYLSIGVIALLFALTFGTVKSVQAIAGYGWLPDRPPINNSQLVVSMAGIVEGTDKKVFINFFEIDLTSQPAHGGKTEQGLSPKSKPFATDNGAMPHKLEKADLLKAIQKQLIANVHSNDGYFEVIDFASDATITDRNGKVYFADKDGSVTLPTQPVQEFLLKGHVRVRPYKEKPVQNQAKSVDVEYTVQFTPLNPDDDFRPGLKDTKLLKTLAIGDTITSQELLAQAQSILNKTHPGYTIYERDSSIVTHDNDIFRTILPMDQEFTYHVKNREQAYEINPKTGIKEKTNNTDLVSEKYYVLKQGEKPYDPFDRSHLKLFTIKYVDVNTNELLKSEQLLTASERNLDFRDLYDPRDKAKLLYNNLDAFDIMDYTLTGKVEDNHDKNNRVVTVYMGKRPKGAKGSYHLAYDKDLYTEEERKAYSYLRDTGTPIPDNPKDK

Streptococcus = assay: GAS UMAA2166 growth inhibition – luminescence, BacTiterGlo, counter-screen for streptokinase expression inhibitor project, dose response (AID 1915); type: functional, organism-based;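 note: potency for reduction of bacterial viability or growth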
cells = type: functional
[6] = molecular target: T3, Replicative DNA helicase DnaB (Mycobacterium tuberculosis, UniProt P9WMR3); assay: DnaB intein splicing inhibitors, dose response, biochemical, cell-free fluorescence (AID 449749); type: functional
T3 sequence (P9WMR3 whole entry): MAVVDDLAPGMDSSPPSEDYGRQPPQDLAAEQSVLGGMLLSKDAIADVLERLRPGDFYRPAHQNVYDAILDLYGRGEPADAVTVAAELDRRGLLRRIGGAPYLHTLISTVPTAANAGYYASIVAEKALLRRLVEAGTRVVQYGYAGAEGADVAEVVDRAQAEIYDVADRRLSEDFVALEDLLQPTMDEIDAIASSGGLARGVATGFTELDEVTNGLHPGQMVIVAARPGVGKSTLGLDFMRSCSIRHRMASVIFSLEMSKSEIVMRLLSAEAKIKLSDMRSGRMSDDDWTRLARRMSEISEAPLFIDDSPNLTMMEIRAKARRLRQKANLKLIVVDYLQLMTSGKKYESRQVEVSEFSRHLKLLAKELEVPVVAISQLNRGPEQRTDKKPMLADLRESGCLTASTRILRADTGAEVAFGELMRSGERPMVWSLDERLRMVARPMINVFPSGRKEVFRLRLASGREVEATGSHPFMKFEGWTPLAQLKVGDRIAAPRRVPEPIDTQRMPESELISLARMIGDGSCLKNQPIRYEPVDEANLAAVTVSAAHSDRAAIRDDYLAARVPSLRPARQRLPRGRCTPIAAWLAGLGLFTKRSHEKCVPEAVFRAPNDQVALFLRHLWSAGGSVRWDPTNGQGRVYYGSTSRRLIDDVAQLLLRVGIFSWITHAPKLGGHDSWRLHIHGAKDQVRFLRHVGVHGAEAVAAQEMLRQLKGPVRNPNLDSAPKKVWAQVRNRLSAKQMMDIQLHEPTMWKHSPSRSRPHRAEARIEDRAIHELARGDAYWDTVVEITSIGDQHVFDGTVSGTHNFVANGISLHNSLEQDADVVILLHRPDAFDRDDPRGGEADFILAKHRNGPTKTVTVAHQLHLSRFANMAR

Protein RecA = molecular target: T4, Protein RecA (Mycobacterium tuberculosis, UniProt P9WHJ3); assay: Fluorescence Cell-Free Homogeneous Dose Retest to Identify Inhibitors of RecA-Intein Splicing Activity. [Related pubchem assays (depositor defined):AID2097, AID2223, AID489010, AID492950]; type: functional
T4 sequence (P9WHJ3 whole entry): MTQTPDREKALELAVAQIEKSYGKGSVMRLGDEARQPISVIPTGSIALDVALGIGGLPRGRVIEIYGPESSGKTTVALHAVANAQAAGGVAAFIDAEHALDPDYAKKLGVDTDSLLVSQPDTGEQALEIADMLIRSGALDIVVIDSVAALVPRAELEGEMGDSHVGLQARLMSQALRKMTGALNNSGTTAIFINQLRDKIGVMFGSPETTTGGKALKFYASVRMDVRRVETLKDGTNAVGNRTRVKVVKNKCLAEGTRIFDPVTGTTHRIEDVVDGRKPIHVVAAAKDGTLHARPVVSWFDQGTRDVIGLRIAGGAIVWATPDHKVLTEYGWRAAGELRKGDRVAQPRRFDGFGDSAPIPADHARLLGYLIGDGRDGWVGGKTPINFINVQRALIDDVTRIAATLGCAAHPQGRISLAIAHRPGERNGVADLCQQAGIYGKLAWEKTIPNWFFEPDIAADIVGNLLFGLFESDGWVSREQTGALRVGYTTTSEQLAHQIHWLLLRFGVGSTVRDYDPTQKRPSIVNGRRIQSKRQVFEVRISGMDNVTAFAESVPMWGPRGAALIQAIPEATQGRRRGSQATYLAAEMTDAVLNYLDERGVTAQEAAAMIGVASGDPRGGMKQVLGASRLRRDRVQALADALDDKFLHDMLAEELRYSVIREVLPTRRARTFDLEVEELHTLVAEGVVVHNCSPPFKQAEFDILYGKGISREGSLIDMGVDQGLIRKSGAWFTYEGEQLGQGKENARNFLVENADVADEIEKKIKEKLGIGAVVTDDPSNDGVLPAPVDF

[7] = Luminescence Cell-Based Dose Retest to Confirm Inhibitors of Cancer Stem Cells. [Related pubchem assays (depositor defined):AID2717, AID2721]; type: functional; conditions: Homo sapiens
Paired box protein Pax-8 = Paired box protein Pax-8 (Homo sapiens, UniProt Q06710); assay: PAX8 transcriptional activity inhibition in RMG-I – RMG-I cells, luciferase, cherry-pick, dose response (AID 687027); type: functional, cell-based;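 note: luciferase reporter driven by Pax8 target thyroperoxidase promoter measured by SteadyGlo luminescence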
Chain of Paired box protein Pax-8 (Q06710 whole entry): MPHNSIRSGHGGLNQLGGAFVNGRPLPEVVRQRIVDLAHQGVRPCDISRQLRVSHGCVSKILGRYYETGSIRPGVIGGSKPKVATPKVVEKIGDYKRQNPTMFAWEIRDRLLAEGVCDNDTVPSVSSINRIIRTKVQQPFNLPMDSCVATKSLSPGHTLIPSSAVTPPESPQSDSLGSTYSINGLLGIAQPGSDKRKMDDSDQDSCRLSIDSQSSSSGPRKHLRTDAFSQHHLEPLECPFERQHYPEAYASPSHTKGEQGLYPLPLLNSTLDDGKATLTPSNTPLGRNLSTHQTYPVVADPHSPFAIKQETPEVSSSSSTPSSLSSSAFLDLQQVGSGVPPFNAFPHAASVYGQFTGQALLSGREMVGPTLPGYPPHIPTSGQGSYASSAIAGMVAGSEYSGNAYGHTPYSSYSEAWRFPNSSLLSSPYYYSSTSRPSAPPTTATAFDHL

Cytochrome P450 2C9 = Cytochrome P450 2C9 (Homo sapiens, UniProt P11712)
Chain of Cytochrome P450 2C9 (P11712 whole entry): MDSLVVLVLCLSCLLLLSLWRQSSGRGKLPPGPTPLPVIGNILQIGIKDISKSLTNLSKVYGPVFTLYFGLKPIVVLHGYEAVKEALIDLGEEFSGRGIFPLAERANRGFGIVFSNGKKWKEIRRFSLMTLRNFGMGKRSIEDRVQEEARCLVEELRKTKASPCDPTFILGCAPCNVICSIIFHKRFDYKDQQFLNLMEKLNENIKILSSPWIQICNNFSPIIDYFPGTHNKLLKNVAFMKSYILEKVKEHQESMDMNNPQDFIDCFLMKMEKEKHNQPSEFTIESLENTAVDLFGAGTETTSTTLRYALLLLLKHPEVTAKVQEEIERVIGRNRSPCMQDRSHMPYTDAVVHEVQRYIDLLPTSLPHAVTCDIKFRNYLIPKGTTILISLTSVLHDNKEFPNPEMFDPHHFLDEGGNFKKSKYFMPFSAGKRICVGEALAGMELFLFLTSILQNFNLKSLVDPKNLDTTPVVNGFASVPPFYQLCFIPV

Cc1cc(-n2c(SCC(=O)NCc3cccs3)nc3nnc(C)c-3c2N)ccc1Cl
EC50 [1]: 14.4 µM (active)
EC50 [2]: > 120 µM (not active)
EC50 [3]: 15.3 µM (active)

CCN1C(=O)/C(=C/Nc2ccccc2)OC1=S
EC50 [4]: > 195 µM (not active)

CC(C)(C)c1ccc(OCCCC(=O)NC2=NCCS2)cc1
EC50 [5]: 19.8 µM (active)
EC50 (Streptokinase A): > 150 µM (not active)
EC50 (Streptococcus): > 150 µM (not active)
IC50 (cells): 20.1 µM (active)

CCOc1ccccc1OCCOCCOc1c(Cl)cccc1Cl
EC50 [4]: > 195 µM (not active)

COCc1n[nH]c2c1C(c1ccc(OC)c(OC)c1)C(C#N)=C(N)O2 (stereo not drawn)
AC50 [6]: 9.47 µM (active)
EC50 (Protein RecA): 6.25 µM (active)

NS(=O)(=O)c1ccc(NN=C2C(=O)NC(=S)NC2=O)cc1
AC50 [6]: 51.7 µM (active)
EC50 (Protein RecA): 15.5 µM (active)

CCc1cc(C(=O)N2CCCC(CCC(=O)NCc3cccc(OC)c3)C2)no1 (stereo not drawn)
EC50 [5]: > 150 µM (not active)
EC50 (Streptokinase A): > 150 µM (not active)
EC50 (Streptococcus): > 150 µM (not active)

CC(=O)Nc1ccc(NC(=O)CSc2ncc(C(=O)Nc3ccccc3)c(=O)n2C)cc1
AC50 [7]: 5.28 µM (active)
AC50 [6]: 0.131 µM (active)
EC50 (Protein RecA): 0.043 µM (active)

CCCCc1ccc(NC(S)=NCCc2ccc(F)cc2)cc1
EC50 (Streptokinase A): 45 µM (active)
EC50 (Streptococcus): > 150 µM (not active)

COc1ccc(C(=O)NC2CCCc3c2cnn3-c2ccccc2F)o1 (stereo not drawn)
EC50 [1]: 41 µM (active)
EC50 [2]: 18.9 µM (active)
EC50 [3]: 22.2 µM (active)

O=C(CCc1ccc(S(=O)(=O)NCc2ccccc2)cc1)NCc1ccco1
AC50 (Paired box protein Pax-8): 47.9 µM (active)

CCOc1ccc(CNC(c2ccccc2)c2ccccc2)cc1
EC50 [4]: > 195 µM (not active)

O=C1/C(=C/c2ccc(F)cc2)SC(=S)N1CC(=O)N1CCCCC1c1cccnc1 (stereo not drawn)
AC50 [6]: 13.1 µM (active)
EC50 (Protein RecA): 30.3 µM (active)

CC(=O)c1sc(NC(=O)CCS(=O)(=O)c2ccc(Cl)cc2)nc1C
AC50 (Paired box protein Pax-8): 5.01 µM (active)

Cc1nn(Cc2ccccc2)c2c1C(c1ccncc1)C(C#N)=C(N)O2 (stereo not drawn)
AC50 [6]: 11.1 µM (active)
EC50 (Protein RecA): 3.43 µM (active)

C=C(C)COc1ccc(-c2n[nH]c(C)c2-c2ccccc2)c(O)c1
EC50 (Streptokinase A): 7.78 µM (active)

CCC(=O)Oc1ccc2c(C)cc(=O)oc2c1C(=O)c1ccccc1
AC50 (Paired box protein Pax-8): 42.4 µM (active)

O=C(Nc1cccc(Cl)c1Cl)c1snnc1-c1ccccc1
EC50 [4]: > 195 µM (not active)
AC50 (Cytochrome P450 2C9): 3.16 µM (inconclusive)

CCOc1ccc(NC(=O)C(c2ccccn2)N(C(=O)CCl)c2ccc(F)cc2)cc1 (stereo not drawn)
AC50 [6]: 7.1 µM (active)
EC50 (Protein RecA): 2.67 µM (active)

CC1(C)CC2CC(C)(CN2C(=O)CCCN2C(=O)c3ccccc3C2=O)C1 (stereo not drawn)
EC50 [4]: > 195 µM (not active)

O=C(Cn1cnc2c(oc3nc4c(cc32)CCCC4)c1=O)Nc1cccc(Cl)c1
EC50 [1]: 13 µM (active)
EC50 [2]: > 120 µM (not active)
EC50 [3]: 10.2 µM (active)

CCOc1ccc(S(=O)(=O)N2CCCC(C(=O)NCc3cccnc3)C2)cc1C (stereo not drawn)
EC50 [1]: 14.2 µM (active)
EC50 [2]: 65.6 µM (active)
EC50 [3]: 19.3 µM (active)

C[C@H]1CN([C@@H](C)CO)C(=O)Cc2cc(NC(=O)Nc3ccc4c(c3)OCO4)ccc2O[C@@H]1CN(C)Cc1ccc(-c2ccccc2)cc1
AC50 (Paired box protein Pax-8): 5.45 µM (active)

COC(=O)[C@H]1[C@@H](O)[C@@]2(O)c3c(OC)cc(OC)cc3O[C@@]2(c2ccc(OC)cc2)[C@@H]1c1ccc(F)cc1
AC50 (Paired box protein Pax-8): 0.465 µM (active)

CCOC(=O)c1ccc(NC(=S)NC(=O)C2CCCC2)cc1
EC50 [4]: > 195 µM (not active)

CC(NC(=O)C12CC3CC(CC(C3)C1)C2)C(=O)N/N=C/C1=C(N2CCOCC2)C(=C\c2ccccc2)/CC1 (stereo not drawn)
EC50 [1]: 15.7 µM (active)
EC50 [2]: > 120 µM (not active)
EC50 [3]: 16.4 µM (active)

CCN(CC)c1ccc(/C=N/n2c(S)nnc2-c2ccccc2Br)cc1
EC50 [1]: > 120 µM (not active)
EC50 [2]: > 120 µM (not active)
EC50 [3]: > 120 µM (not active)

COc1cc(/C=N/NC(=O)CC2(C)OCCCO2)ccc1OCc1ccccc1
AC50 [6]: 2.64 µM (active)
EC50 (Protein RecA): 0.81 µM (active)

CCNc1ccc(C(=O)N/N=C/c2c(C)nn(-c3ccccc3)c2N2CCCC2)cc1[N+](=O)[O-]
EC50 [1]: 18.5 µM (active)
EC50 [2]: 12.7 µM (active)
EC50 [3]: 30.6 µM (active)
